According to US20100021940A1, “Method for Determining the Activity of a Protease in a Sample” (ASTRAZENECA AB, priority 2006, published 2010):

Legend:
Assay in all cases: Activity of purified MMP on substrate (reporter release)
Type in all cases: biochemical
MMP12 = target: T1, MMP12 (Homo sapiens, UniProt P39900); conditions: 30 μM substrate; MMP Conc. 0.27 nM; ABL010827
T1 construct: Recombinant human MMP12 catalytic domain may be expressed and purified; made in house
Description: (§1) In order to confirm the specificity of the substrates for various MMPs, standard enzymatic assays were adapted to monitor the release of reporter. The reporter was either analysed by a LC-MS method as described in Example 3a, or by a LC-UV method as described in Example 4.
Recombinant human MMP12 catalytic domain may be expressed and purified as described by Parkar A. A. et al, (2000), Protein Expression and Purification, 20, 152. The purified enzyme can be used to monitor activity of substrates as follows: MMP12 (50 ng/ml final […]) in assay buffer (0.1M “Tris-HCl” (trade mark) buffer, pH 7.3 containing 0.1M NaCl, 20 mM CaCl2, 0.020 mM ZnCl and 0.05% (w/v) “Brij 35” (trade mark) detergent) in the presence or absence of inhibitors. Activity is determined by measuring the release of reporter 4-nitroaniline by the using the method in Example 3a.

MMP3 = MMP3 (Homo sapiens, UniProt P08254)
Chain of MMP3 (P08254 100-477): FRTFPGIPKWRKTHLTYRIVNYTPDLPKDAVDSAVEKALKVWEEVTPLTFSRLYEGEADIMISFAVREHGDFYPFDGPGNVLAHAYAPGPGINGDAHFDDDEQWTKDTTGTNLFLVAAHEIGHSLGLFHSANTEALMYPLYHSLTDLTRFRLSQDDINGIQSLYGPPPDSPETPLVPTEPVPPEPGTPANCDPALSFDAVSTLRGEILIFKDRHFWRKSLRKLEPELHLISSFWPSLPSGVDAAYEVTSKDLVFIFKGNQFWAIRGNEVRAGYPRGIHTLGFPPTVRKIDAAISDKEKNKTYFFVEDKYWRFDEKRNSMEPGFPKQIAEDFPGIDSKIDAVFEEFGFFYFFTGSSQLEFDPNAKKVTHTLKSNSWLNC
Description: as §1, with “4. A protocol for testing against other matrix metalloproteinases, including MMP9, using expressed and purified pro MMP is described, for instance, by C.” for “4.”

MMP1 = target: T2, MMP1 (Homo sapiens, UniProt P03956)
T2 sequence (P03956 100-469): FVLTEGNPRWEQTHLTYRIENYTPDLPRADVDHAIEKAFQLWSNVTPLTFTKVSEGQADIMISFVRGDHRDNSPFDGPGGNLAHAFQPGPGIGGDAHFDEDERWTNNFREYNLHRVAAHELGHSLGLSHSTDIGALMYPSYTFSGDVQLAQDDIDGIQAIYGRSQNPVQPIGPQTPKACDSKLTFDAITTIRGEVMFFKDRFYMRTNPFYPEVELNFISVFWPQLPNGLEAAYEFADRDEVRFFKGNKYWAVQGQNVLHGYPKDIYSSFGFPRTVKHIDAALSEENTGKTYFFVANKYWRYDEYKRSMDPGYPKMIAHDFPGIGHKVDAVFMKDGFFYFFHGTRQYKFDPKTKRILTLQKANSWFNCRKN
Description: as §1, with “4. A protocol for testing against other matrix metalloproteinases, including MMP9, using expressed and purified pro MMP is described, for instance, by C.” for “4.”

MMP8 = target: T3, MMP8 (Homo sapiens, UniProt P22894)
T3 construct: purchased Calbiochem
T3 sequence (P22894 101-467): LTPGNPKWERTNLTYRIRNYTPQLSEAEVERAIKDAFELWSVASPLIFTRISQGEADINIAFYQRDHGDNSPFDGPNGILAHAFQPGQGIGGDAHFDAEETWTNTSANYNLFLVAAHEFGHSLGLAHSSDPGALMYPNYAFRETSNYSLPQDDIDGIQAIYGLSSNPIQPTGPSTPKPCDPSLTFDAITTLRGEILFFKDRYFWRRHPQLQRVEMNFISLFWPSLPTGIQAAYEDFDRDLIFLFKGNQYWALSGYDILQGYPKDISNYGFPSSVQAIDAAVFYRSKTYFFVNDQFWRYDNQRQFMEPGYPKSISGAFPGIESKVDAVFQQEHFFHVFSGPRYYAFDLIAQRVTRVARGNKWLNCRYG
Description: In order to confirm the specificity of the substrates for various MMPs, standard enzymatic assays were adapted to monitor the release of reporter. The reporter was either analysed by a LC-MS method as described in Example 3a, or by a LC-UV method as described in Example 4. Purified pro-MMP8 is purchased from Calbiochem. The enzyme (at 10 μg/ml) is activated by p-amino-phenyl-mercuric acetate (APMA) at 1 mM for 2.5 h, 35° C. The activated enzyme can be used to monitor activity of substrates as follows: MMP8 (200 ng/ml final concentration) is incubated for 90 minutes at 35° C.

MMP13 = MMP13 (Homo sapiens, UniProt P45452); conditions: 30 μM substrate; MMP Conc. 1.2 nM; AZAP0.5 mg/ml
Description: as §1
(§2) A protocol for testing against other matrix metalloproteinases, including MMP9, using expressed and purified pro MMP is described, for instance, by C. Graham Knight et al., (1992) FEBS Lett., 296(3), 263-266.

MMP16 = MMP16 (Homo sapiens, UniProt P51512); conditions: 30 μM substrate; MMP Conc. 4.3 nM; Calbiochem #475939
Chain of MMP16 (P51512 120-607): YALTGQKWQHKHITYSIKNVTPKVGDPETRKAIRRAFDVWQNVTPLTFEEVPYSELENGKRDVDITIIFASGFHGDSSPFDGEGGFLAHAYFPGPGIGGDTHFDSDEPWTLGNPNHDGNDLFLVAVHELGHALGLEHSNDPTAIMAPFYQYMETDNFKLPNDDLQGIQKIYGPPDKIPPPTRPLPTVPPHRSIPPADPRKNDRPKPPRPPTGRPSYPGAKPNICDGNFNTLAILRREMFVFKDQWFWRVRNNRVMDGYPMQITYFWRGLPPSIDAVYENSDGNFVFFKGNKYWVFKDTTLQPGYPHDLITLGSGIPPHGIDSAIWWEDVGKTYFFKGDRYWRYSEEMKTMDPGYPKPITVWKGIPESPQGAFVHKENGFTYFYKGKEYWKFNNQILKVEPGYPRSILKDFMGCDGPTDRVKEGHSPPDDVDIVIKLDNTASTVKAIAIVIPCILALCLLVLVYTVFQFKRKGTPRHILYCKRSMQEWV
Description: as §1, §2

MMP2 = target: T4, MMP2 (Homo sapiens, UniProt P08253); conditions: 30 μM substrate; MMP Conc. 0.71 nM; Chemicon #CC071
T4 sequence (P08253 110-660): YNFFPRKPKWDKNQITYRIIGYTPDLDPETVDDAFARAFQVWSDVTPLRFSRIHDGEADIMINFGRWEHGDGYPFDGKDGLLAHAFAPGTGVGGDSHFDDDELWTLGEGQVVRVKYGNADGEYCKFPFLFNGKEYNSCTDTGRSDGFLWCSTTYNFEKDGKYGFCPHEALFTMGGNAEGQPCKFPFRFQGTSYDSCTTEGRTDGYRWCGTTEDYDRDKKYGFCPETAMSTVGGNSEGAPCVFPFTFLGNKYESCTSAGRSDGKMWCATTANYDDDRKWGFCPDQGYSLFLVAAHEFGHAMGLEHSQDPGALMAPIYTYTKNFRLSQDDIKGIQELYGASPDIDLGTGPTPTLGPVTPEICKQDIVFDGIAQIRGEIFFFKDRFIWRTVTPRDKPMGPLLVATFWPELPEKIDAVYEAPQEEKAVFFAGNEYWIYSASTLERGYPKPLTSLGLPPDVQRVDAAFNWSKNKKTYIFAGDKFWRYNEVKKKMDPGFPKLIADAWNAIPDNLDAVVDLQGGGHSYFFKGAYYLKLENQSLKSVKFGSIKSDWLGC
Description: as §1, §2

T1 sequence (P39900 106-263 limits assumed): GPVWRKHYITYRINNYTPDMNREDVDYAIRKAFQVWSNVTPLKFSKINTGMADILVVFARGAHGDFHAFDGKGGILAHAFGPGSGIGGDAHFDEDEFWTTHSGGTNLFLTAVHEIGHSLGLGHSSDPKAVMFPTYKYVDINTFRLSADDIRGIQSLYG

COC(=O)CCNC(=O)[C@H](CC(C)C)NC(=O)[C@@H](NC(=O)CNC(=O)[C@H](CC(C)C)NC(=O)[C@@H]1CCCN1C(C)=O)Nc1ccc([N+](=O)[O-])cc1 [Example 1.1, Methyl 1-acetyl-L-prolyl-L-leucylglycyl-α-R-(4-nitrophenylamino)-glycyl-L-leucyl-β-alaninate]
Activity (MMP12): 7.7 units/s | Activity (MMP3; 30 μM substrate, MMP Conc. 19 nM, AZL0095): 0.048 units/s | Activity of selected substrates with MMPs (MMP3; Table 1b, MMP3): 3.8 units/s (molRXH/molEnz * s) | Activity (MMP1; 30 μM substrate, MMP Conc. 9.3 nM, Calbiochem #444208): 0.16 units/s | Activity of selected substrates with MMPs (MMP1; Table 1b, MMP1): 26.1 units/s (molRXH/molEnz * s) | Activity (MMP8; 30 μM substrate, MMP Conc. 2.7 nM, Calbiochem #444229): 1.1 units/s | Activity of selected substrates with MMPs (MMP8; Table 1b, MMP8): 120.4 units/s (molRXH/molEnz * s) | Activity (MMP13): 1.9 units/s | Activity (MMP16): 1.4 units/s | Activity (MMP2): 2.3 units/s
